Test results reported in patent US20240368406A1, “STABLE LIQUID PHANTOM FOR NEAR-INFRARED FLUORESCENCE VERIFICATION” (SURGVISION GMBH, priority 2021, published 2024).

What was measured:
Format in all cases: physicochemical
[1] = Stability of the phantom solutions at +2-8° C. (residual absorbance, UV/VIS)
Experimental: Several stability studies were performed to evaluate the effect of different buffers, additives such as excipients or preservatives, and storage conditions on the dye formulation. In particular the stability of the formulations after storage at +2-8° C. in a refrigerator was firstly investigated.
(§1) Stability was measured as reduction in the absorbance at the maximum wavelength of the dye acquired using a UV/VIS spectrophotometer, denoting reduction of the dye monomer content in solution. All the results were then reported as residual percentage vs the baseline (T=0), wherein at time=0 the percentage is 100%. A decrease in absorbance is associated with the reduction of the concentration of the dye in the formulation buffer, indicating low stability and degradation of the main chromophore species.
In the Tables below the residual absorbance of different dyes, i.e. […] and S0456, in some representative organic buffering solutions is reported after storage of the formulations at +2-8° C.

[2] = Stability of the phantom solutions at +2-8° C. in the presence of additives (residual absorbance); conditions: +2-8° C.
Experimental: as §1
The effect of the presence of an additive on the stability of the formulations of the invention has been also investigated.
The preparation of the above buffers is described below:
50 mM HEPES (pH 7.4)+0.04% Tween 20: to prepare 100 mL of buffering solution, 1.19 g of HEPES were dissolved in 80 mL of water; 40 μL of Tween 20 were added and the pH was adjusted to 7.4 with 0.1 M HCl. The buffering solution was then brought to 100 mL volume with water and filtered on 0.22 μm membrane in sterile conditions.
50 mM HEPES (PH 7.4)+0.02% Sodium Azide: to prepare 100 mL of buffering solution, 1.19 g of HEPES and 20 mg of Sodium Azide were dissolved in 80 mL of water and the pH was adjusted to 7.4 with 0.1 M HCl. The buffering solution was then brought to 100 mL volume with water and filtered on 0.22 μm membrane in sterile conditions.
10 mM HEPES (PH 7.0)+10% EtOH: to prepare 100 mL of buffering solution, 0.24 g of HEPES were dissolved in 80 mL of water and the pH was adjusted to 7.0 with 0.1 M HCl.
Then, 10 mL of 100% Ethanol were added. The buffering solution was then brought to 100 mL volume with water and filtered on 0.22 μm membrane in sterile conditions.
Analogous solutions were prepared with the same procedure for MOPS, BES and TRICINE buffers.

[3] = Stability of the phantom solutions at +2-8° C. during long-term storage (residual absorbance); conditions: 3 μM dye in HEPES 10 mM, pH 7.0, +2-8° C. protected from light
Experimental: Stability was measured as reduction in the absorbance at the maximum wavelength of the dye acquired using a UV/VIS spectrophotometer, denoting reduction of the dye monomer content in solution. […] A decrease in absorbance is associated with the reduction of the concentration of the dye in the formulation buffer, indicating low stability and degradation of the main chromophore species. The stability of the formulations under long-term storage conditions was also investigated. In particular, samples of 3 μM IRDye […] and 3 μM IRDye 800BK dissolved in HEPES buffer were stored refrigerated at +2-8° C. protected from light exposure for at least 6 months. For the long-term stability study at 2-8° C., samples of.

## CC1(C)C(/C=C/C2=C(Oc3ccc(S(=O)(=O)O)cc3)C(=C/C=C3\N(CCCCS(=O)(=O)[O-])c4ccc(S(=O)(=O)O)cc4C3(C)C)/CCC2)=[N+](CCCCS(=O)(=O)O)c2ccc(S(=O)(=O)O)cc21 [IRDye 800BK]
[1]; 3 μM dye in BES buffer 10 mM, pH 7.0, +2-8° C., 1 week
  Residual absorbance percentage: 97.6%
[1]; 3 μM dye in BES buffer 10 mM, pH 7.0, +2-8° C., 2 weeks
  Residual absorbance percentage: 94.8%
[1]; 3 μM dye in BES buffer 10 mM, pH 7.0, +2-8° C., 4 weeks
  Residual absorbance percentage: 92.0%
[1]; 3 μM dye in BES buffer 10 mM, pH 7.4, +2-8° C., 1 week
  Residual absorbance percentage: 97.6%
[1]; 3 μM dye in BES buffer 10 mM, pH 7.4, +2-8° C., 2 weeks
  Residual absorbance percentage: 94.4%
[1]; 3 μM dye in BES buffer 10 mM, pH 7.4, +2-8° C., 4 weeks
  Residual absorbance percentage: 91.5%
[1]; 3 μM dye in BES buffer 10 mM, pH 7.8, +2-8° C., 1 week
  Residual absorbance percentage: 96.4%
[1]; 3 μM dye in BES buffer 10 mM, pH 7.8, +2-8° C., 2 weeks
  Residual absorbance percentage: 92.4%
[1]; 3 μM dye in BES buffer 10 mM, pH 7.8, +2-8° C., 4 weeks
  Residual absorbance percentage: 88.1%
[1]; 3 μM dye in BES buffer 50 mM, pH 7.0, +2-8° C., 1 week
  Residual absorbance percentage: 96.8%
[1]; 3 μM dye in BES buffer 50 mM, pH 7.0, +2-8° C., 2 weeks
  Residual absorbance percentage: 93.5%
[1]; 3 μM dye in BES buffer 50 mM, pH 7.0, +2-8° C., 4 weeks
  Residual absorbance percentage: 90.0%
[1]; 3 μM dye in BES buffer 50 mM, pH 7.4, +2-8° C., 1 week
  Residual absorbance percentage: 97.2%
[1]; 3 μM dye in BES buffer 50 mM, pH 7.4, +2-8° C., 2 weeks
  Residual absorbance percentage: 94.0%
[1]; 3 μM dye in BES buffer 50 mM, pH 7.4, +2-8° C., 4 weeks
  Residual absorbance percentage: 90.5%
[1]; 3 μM dye in BES buffer 50 mM, pH 7.8, +2-8° C., 1 week
  Residual absorbance percentage: 95.9%
[1]; 3 μM dye in BES buffer 50 mM, pH 7.8, +2-8° C., 2 weeks
  Residual absorbance percentage: 91.7%
[1]; 3 μM dye in BES buffer 50 mM, pH 7.8, +2-8° C., 4 weeks
  Residual absorbance percentage: 89.6%
[1]; 3 μM dye in MOPS buffer 10 mM, pH 7.0, +2-8° C., 1 week
  Residual absorbance percentage: 97.9%
[1]; 3 μM dye in MOPS buffer 10 mM, pH 7.0, +2-8° C., 2 weeks
  Residual absorbance percentage: 95.7%
[1]; 3 μM dye in MOPS buffer 10 mM, pH 7.0, +2-8° C., 4 weeks
  Residual absorbance percentage: 93.7%
[1]; 3 μM dye in MOPS buffer 10 mM, pH 7.4, +2-8° C., 1 week
  Residual absorbance percentage: 97.9%
[1]; 3 μM dye in MOPS buffer 10 mM, pH 7.4, +2-8° C., 2 weeks
  Residual absorbance percentage: 95.3%
[1]; 3 μM dye in MOPS buffer 10 mM, pH 7.4, +2-8° C., 4 weeks
  Residual absorbance percentage: 93.6%
[1]; 3 μM dye in MOPS buffer 10 mM, pH 7.8, +2-8° C., 1 week
  Residual absorbance percentage: 96.9%
[1]; 3 μM dye in MOPS buffer 10 mM, pH 7.8, +2-8° C., 2 weeks
  Residual absorbance percentage: 94.1%
[1]; 3 μM dye in MOPS buffer 10 mM, pH 7.8, +2-8° C., 4 weeks
  Residual absorbance percentage: 91.1%
[1]; 3 μM dye in MOPS buffer 50 mM, pH 7.0, +2-8° C., 1 week
  Residual absorbance percentage: 97.4%
[1]; 3 μM dye in MOPS buffer 50 mM, pH 7.0, +2-8° C., 2 weeks
  Residual absorbance percentage: 94.6%
[1]; 3 μM dye in MOPS buffer 50 mM, pH 7.0, +2-8° C., 4 weeks
  Residual absorbance percentage: 92.0%
[1]; 3 μM dye in MOPS buffer 50 mM, pH 7.4, +2-8° C., 1 week
  Residual absorbance percentage: 97.5%
[1]; 3 μM dye in MOPS buffer 50 mM, pH 7.4, +2-8° C., 2 weeks
  Residual absorbance percentage: 94.9%
[1]; 3 μM dye in MOPS buffer 50 mM, pH 7.4, +2-8° C., 4 weeks
  Residual absorbance percentage: 92.6%
[1]; 3 μM dye in MOPS buffer 50 mM, pH 7.8, +2-8° C., 1 week
  Residual absorbance percentage: 97.0%
[1]; 3 μM dye in MOPS buffer 50 mM, pH 7.8, +2-8° C., 2 weeks
  Residual absorbance percentage: 94.0%
[1]; 3 μM dye in MOPS buffer 50 mM, pH 7.8, +2-8° C., 4 weeks
  Residual absorbance percentage: 91.3%
[2]; 3 μM dye in BES (10 mM, pH 7.0) +10% EtOH, 1 week
  Residual absorbance percentage: 99.2%
[2]; 3 μM dye in BES (10 mM, pH 7.0) +10% EtOH, 2 weeks
  Residual absorbance percentage: 98.2%
[2]; 3 μM dye in BES (10 mM, pH 7.0) +10% EtOH, 4 weeks
  Residual absorbance percentage: 97.2%
[2]; 3 μM dye in HEPES (10 mM, pH 7.0) +10% EtOH, 1 week
  Residual absorbance percentage: 97.8%
[2]; 3 μM dye in HEPES (10 mM, pH 7.0) +10% EtOH, 2 weeks
  Residual absorbance percentage: 97.2%
[2]; 3 μM dye in HEPES (10 mM, pH 7.0) +10% EtOH, 4 weeks
  Residual absorbance percentage: 95.1%
[2]; 3 μM dye in MOPS (10 mM, pH 7.0) +10% EtOH, 1 week
  Residual absorbance percentage: 97.6%
[2]; 3 μM dye in MOPS (10 mM, pH 7.0) +10% EtOH, 2 weeks
  Residual absorbance percentage: 95.8%
[2]; 3 μM dye in MOPS (10 mM, pH 7.0) +10% EtOH, 4 weeks
  Residual absorbance percentage: 92.9%
[3]; 1 month
  Residual absorbance percentage: 99.1%
[3]; 3 months
  Residual absorbance percentage: 94.1%
[3]; 6 months
  Residual absorbance percentage: 93.3%
